Values quoted from earlier work in patent publication US10053407B2, “Crystalline cannabidivarin” (S&B Pharma, Inc., priority 2016, dated 2018).

Test system: epilepsy
Details: animal studies; 50 and 100 mg/kg, delivered intra-peritoneally; cannabidivarin prepared by non-synthetic methods

For `C=C(C)[C@@H]1CCC(C)=C[C@H]1c1c(O)cc(CCC)cc1O` [cannabidivarin], the mortality is given as “effective in reducing mortality”.
